A value given as a limit tells only on which side of the number the result lay.

EC50 data for 32 compounds are collected here from patent publication US12030876B2, “Aryl hydrocarbon receptor (AHR) agonists and uses thereof” (Ikena Oncology, Inc., priority 2019, dated 2024).

The target of assay [1] is T1, AHR (Homo sapiens, UniProt P35869).
T1 construct: endogenous in cells; host or cells: HepG2 (human), transfected with a DRE-luciferase reporter only
T1 sequence (P35869 11-848): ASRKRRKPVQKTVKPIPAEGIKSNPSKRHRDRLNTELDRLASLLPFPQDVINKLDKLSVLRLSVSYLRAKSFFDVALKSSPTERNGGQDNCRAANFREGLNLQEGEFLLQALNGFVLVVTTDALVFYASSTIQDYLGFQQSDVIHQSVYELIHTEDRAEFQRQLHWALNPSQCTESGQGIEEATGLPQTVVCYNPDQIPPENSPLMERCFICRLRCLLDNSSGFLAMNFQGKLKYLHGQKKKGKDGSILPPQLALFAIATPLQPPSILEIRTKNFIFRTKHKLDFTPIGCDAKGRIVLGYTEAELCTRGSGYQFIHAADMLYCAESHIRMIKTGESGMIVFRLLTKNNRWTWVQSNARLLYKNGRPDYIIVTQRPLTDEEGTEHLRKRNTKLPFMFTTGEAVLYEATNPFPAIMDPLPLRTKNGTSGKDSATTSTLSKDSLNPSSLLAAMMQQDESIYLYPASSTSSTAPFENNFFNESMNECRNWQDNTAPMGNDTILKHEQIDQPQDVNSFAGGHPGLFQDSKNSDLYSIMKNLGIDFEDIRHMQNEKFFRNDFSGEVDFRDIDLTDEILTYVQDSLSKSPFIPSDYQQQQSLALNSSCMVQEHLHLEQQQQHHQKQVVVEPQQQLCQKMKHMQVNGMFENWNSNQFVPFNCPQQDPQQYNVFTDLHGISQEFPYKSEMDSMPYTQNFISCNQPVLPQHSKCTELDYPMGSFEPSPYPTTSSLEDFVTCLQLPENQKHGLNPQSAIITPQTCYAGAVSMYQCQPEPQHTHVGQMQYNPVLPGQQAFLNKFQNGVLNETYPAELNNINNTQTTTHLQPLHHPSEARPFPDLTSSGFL
The assay can be described thus: DRE-Luciferase Reporter Assay, HepG2 (agonist). Particulars: HepG2, Table 2; read-out: DRE-Luc HepG2 - Agonist: Average EC50. The class given is cell-based. On the procedure: DRE-Luciferase Reporter Assay
AHR binds to Dioxin Responsive Elements (DRE) upstream of genes that it activates. One measure of AHR activity is activation of a reporter gene, such as luciferase, downstream of one or multiple DRE elements. Luciferase activity reflects activation and inhibition of AHR in the cells expressing this reporter.
Murine Hepa1-6 or Hepa-1c1c7 or other murine cell line with a DRE-luciferase reporter either stably or transiently transfected are plated in media in plates (96-well, 384-well or other plates) and incubated overnight at 37 C in a CO2 incubator. Likewise, human HepG2 or other human cell line with a DRE-luciferase reporter either stably or transiently transfected are plated in media in plates (96-well, 384-well or other plates) and incubated overnight at 37 C in a CO2 incubator.
(§1) The next day, an AHR agonist compound is added. Cells are incubated for 6, 16 or 24 hours or another time point and then lysed for determination of luciferase activity as a read-out of the AHR activation. Luciferase can be measured with a commercial kit such as the Promega Luciferase kit or any kit or reagents that provide the luciferin substrate for measuring luciferase activity. The level of luciferase with only activating ligand (e.g. such as TCDD, kynurenine, ITE (2-(1H-indole-3-ylcarbonyl)-4-thiazolecarboxylic methyl ester), VAF347, BNF (beta-naphthoflavone), ICZ (6-formylindolo(3,2-b) carbazole or other AHR ligands) added is the maximum signal while the luciferase with no ligand is the minimum signal. EC50s can be determined as the concentration which activates half of the maximum luciferase activity.

Assay [2] deals with T2, AHR (Mus musculus, UniProt P30561).
T2 sequence (P30561 1-848 F348L/P471L): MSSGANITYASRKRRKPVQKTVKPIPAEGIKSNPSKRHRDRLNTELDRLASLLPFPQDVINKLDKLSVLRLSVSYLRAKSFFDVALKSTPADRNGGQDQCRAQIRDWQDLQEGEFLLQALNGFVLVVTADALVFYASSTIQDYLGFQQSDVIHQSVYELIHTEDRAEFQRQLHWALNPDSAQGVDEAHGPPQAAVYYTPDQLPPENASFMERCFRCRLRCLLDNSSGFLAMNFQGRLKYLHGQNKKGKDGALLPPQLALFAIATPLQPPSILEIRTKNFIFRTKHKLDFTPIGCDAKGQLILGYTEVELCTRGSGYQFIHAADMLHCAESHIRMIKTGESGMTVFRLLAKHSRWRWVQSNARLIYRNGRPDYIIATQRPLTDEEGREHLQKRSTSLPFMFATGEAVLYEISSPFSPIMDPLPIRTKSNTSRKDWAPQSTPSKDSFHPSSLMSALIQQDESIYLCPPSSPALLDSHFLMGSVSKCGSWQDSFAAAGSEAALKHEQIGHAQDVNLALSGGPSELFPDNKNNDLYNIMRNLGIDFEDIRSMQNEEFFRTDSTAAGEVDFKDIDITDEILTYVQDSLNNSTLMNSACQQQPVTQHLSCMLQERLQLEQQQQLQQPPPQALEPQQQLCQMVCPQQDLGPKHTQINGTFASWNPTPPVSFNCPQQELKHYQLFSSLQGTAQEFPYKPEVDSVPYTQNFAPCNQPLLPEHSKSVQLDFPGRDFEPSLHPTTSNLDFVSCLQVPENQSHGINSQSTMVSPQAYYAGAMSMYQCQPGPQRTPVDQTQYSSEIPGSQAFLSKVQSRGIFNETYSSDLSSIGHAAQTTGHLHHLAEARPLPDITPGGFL
Nature of the assay: P450 CYP1A1 Luciferase Assay, Hepa1.6 (agonist). The class given is cell-based, murine. As to conditions: Hepa1.6, Table 2. How it is done: P450 CYP1A1 Luciferase Assay
AHR binds to Dioxin Responsive Elements (DRE) upstream of genes that it activates. One measure of AHR activity is P450 CYP1A1 protein levels determined by measuring CYP1A1 enzyme activity using a luminogenic CYP1A1 luciferin-based substrate. Luciferase activity will reflect CYP1A1 activity resulting from activation of AHR in the cells.
Murine Hepa1-6 or Hepa-1c1c7 or other murine cell line, human HepG2 or other human cell line are plated in media (96-well, 384-well or other plates) and incubated overnight at 37 C in a CO2 incubator.
as §1, with “lysed and incubated with a CYP1A1 luciferase-based substrate (e.g. Luciferin-CEE)” for “lysed”, “3, 6, or 12 hours of another time point. Determination” for “determination”, “CYP1A1 enzyme activity” for “the AHR activation. Luciferase”, “P450 Glo CYP1A1 detection reagent” for “Luciferase kit”, “provide” for “provide the luciferin substrate”

Turning to `N#Cc1cccc(Nc2nc(-c3cccc(Cl)c3)cs2)c1` [I-25], the EC50 (in general, the concentration at which the effect is half-maximal) is 10 to 100 nM on AHR [1] and above 1000 nM at AHR [2].

Turning to `FC(F)(F)c1cccc(Nc2nc(-c3ccccn3)cs2)c1` [Compound P-9], the EC50 at AHR [1] was below 10 nM; on AHR [2], above 1000 nM.

As to `COc1cccc(-c2csc(Nc3cccc(C(F)(F)F)c3)n2)c1` [Compound P-11], the half-maximal effective concentration (EC50) at AHR [1] was 10 to 100 nM; at AHR [2], above 1000 nM.

On to `CN(C)c1cccc(-c2csc(Nc3cccc(C(F)(F)F)c3)n2)c1` [I-30], for which the EC50 at AHR [1] was in the range of 10 to 100 nM; at AHR [2] it was 100 to 1000 nM.

Take `FC(F)(F)c1cccc(Nc2nc(-c3ccc(Cl)cc3)cs2)c1` [Compound P-10]: the figures for the EC50 on AHR [1] and at AHR [2] were 10 to 100 nM and above 1000 nM, respectively.

In the case of `C[N+](C)(CCO)CCNC(=O)N(c1cccc(C(F)(F)F)c1)c1nc(-c2cccc([N+](=O)[O-])c2)cs1` [I-4], the EC50 was below 10 nM at AHR [1] and 10 to 100 nM at AHR [2].

For `FC(F)(F)Oc1cccc(-c2csc(Nc3cccc(C(F)(F)F)c3)n2)c1` [I-36], the EC50 on AHR [1] is 100 to 1000 nM; at AHR [2], above 1000 nM.

Consider `C[N+](C)(C)CCNC(=O)N(c1cccc(C(F)(F)F)c1)c1nc(-c2cccc(Cl)c2)cs1` [I-8], for which the half-maximal effective concentration (EC50) at AHR [1] was below 10 nM; on AHR [2], above 1000 nM.

`CN1CCN(C(=O)c2cccc(-c3csc(Nc4cccc(C(F)(F)F)c4)n3)c2)CC1` [I-48]: the EC50 at AHR [1] and on AHR [2] was above 1000 nM throughout.

As for `Clc1cccc(-c2csc(Nc3ccccc3)n2)c1` [Compound P-7], the EC50 was below 10 nM at AHR [1] and above 1000 nM on AHR [2].

With `FC(F)(F)c1cccc(Nc2nc(-c3ccc4cc[nH]c4c3)cs2)c1` [I-23], the EC50 was below 10 nM on AHR [1] and above 1000 nM on AHR [2].

For the compound `O=[N+]([O-])c1cccc(Nc2nc(-c3cccc(Cl)c3)cs2)c1` [I-38], the concentration for a half-maximal effect (EC50) at AHR [1] was 100 to 1000 nM; at AHR [2], above 1000 nM.

Regarding `FC(F)(F)c1cccc(Nc2cc(-c3cccc(Cl)c3)cs2)c1` [I-61], the figures for the EC50 on AHR [1] and at AHR [2] were 100 to 1000 nM and above 1000 nM, respectively.

Consider `C[N+]1(C)CCN(C(=O)c2cccc(-c3csc(Nc4cccc(C(F)(F)F)c4)n3)c2)CC1` [I-53], for which the concentration giving a half-maximal response (EC50) at AHR [1] and on AHR [2] was above 1000 nM throughout.

For the compound `FC(F)(F)c1cccc(Nc2nc(-c3cccc(Br)c3)cs2)c1` [Compound P-4], the EC50 at AHR [1] is below 10 nM; at AHR [2], 100 to 1000 nM.

As to `O=[N+]([O-])c1cncc(-c2csc(Nc3cccc(C(F)(F)F)c3)n2)c1` [I-7], the figures for the EC50 on AHR [1] and on AHR [2] were below 10 nM and 100 to 1000 nM, respectively.

For the compound `C[N+](C)(CCNC(=O)N(c1cccc(C(F)(F)F)c1)c1nc(-c2cccc(Cl)c2)cs1)CCNC(=O)N(c1cccc(C(F)(F)F)c1)c1nc(-c2cccc(Cl)c2)cs1` [I-2], the EC50 at AHR [1] is below 10 nM; on AHR [2], 100 to 1000 nM.

Take `O=[N+]([O-])c1ccccc1-c1csc(Nc2cccc(C(F)(F)F)c2)n1` [I-49]: the EC50 at AHR [1] and at AHR [2] was above 1000 nM each time.

Consider `C[N+](C)(CCO)CCCNC(=O)N(c1cccc(C(F)(F)F)c1)c1nc(-c2cccc(Cl)c2)cs1` [I-26], for which the EC50 on AHR [1] was 10 to 100 nM; on AHR [2], above 1000 nM.

As for `Clc1cccc(-c2csc(Nc3ccccn3)n2)c1` [Compound P-13], the EC50 on AHR [1] is 100 to 1000 nM; at AHR [2], above 1000 nM.

In the case of `FC(F)(F)c1cccc(Nc2nc(-c3cccc(Cl)c3)ns2)c1` [I-58], the half-maximal effective concentration (EC50) was below 10 nM at AHR [1] and above 1000 nM on AHR [2].

On to `C[N+](C)(C)CCNC(=O)Nc1cccc(-c2csc(Nc3cccc(C(F)(F)F)c3)n2)c1` [I-47], for which the concentration for a half-maximal effect (EC50) at AHR [1] and at AHR [2] was above 1000 nM in each case.

In the case of `Cc1c(-c2csc(Nc3cccc(C(F)(F)F)c3)n2)cccc1[N+](=O)[O-]` [I-15], the EC50 on AHR [1] was below 10 nM; on AHR [2] it was above 1000 nM.

In the case of `O=C(c1cccc(-c2csc(Nc3cccc(C(F)(F)F)c3)n2)c1)N1CCOCC1` [I-43], the EC50 was 100 to 1000 nM at AHR [1] and above 1000 nM on AHR [2].

Regarding `C[N+](C)(C)CCCNC(=O)N(c1cccc(C(F)(F)F)c1)c1nc(-c2cccc(Cl)c2)cs1` [I-24], the half-maximal effective concentration (EC50) at AHR [1] was 10 to 100 nM; at AHR [2] it was above 1000 nM.

For the compound `O=[N+]([O-])c1cccc(-c2csc(Nc3cccc(C(F)(F)F)c3)n2)c1` [Compound P-1], the EC50 is below 10 nM on AHR [1] and 10 to 100 nM at AHR [2].

For `FC(F)(F)c1cccc(Nc2nc(-c3ccccc3Cl)cs2)c1` [I-19], the 50% effective concentration (EC50) on AHR [1] was below 10 nM; at AHR [2], above 1000 nM.

Regarding `FC(F)(F)c1cccc(Nc2nc(-c3cccnc3)cs2)c1` [Compound P-8], the EC50 on AHR [1] was below 10 nM; on AHR [2], 100 to 1000 nM.

For `C[N+](C)(CCO)CCOC(=O)N(c1cccc(C(F)(F)F)c1)c1nc(-c2cccc(Cl)c2)cs1` [I-31], the figures for the concentration for a half-maximal effect (EC50) on AHR [1] and at AHR [2] were 10 to 100 nM and above 1000 nM, respectively.

For `O=C(O)c1cccc(-c2csc(Nc3cccc(C(F)(F)F)c3)n2)c1` [I-33], the EC50 on AHR [1] is 100 to 1000 nM; at AHR [2], above 1000 nM.

On to `C[N+](C)(C)CCCC(=O)N(c1cccc(C(F)(F)F)c1)c1nc(-c2cccc(Cl)c2)cs1` [I-29], for which the values for the EC50 on AHR [1] and at AHR [2] were 10 to 100 nM and 100 to 1000 nM, respectively.

Turning to `FC(F)(F)c1cccc(Nc2nc(-c3cccc(Cl)c3)cs2)n1` [I-6], the figures for the EC50 at AHR [1] and on AHR [2] were below 10 nM and above 1000 nM, respectively.
